Experimental data from patent US20030100567A1, “Tyrosine kinase inhibitors” (priority 2001, published 2003).

How the values were obtained:
Conditions in all cases: in vivo
Pharmacokinetics in dog = experiment: Pharmacokinetics in dog
Pharmacokinetics in rat = experiment: Pharmacokinetics in rat
[1] = Pharmacokinetics in rhesus monkey

Compound | clearance (Pharmacokinetics in dog) [mL/min/kg] | half-life (Pharmacokinetics in dog) [h] | bioavailability (Pharmacokinetics in dog) [%] | clearance (Pharmacokinetics in rat) [mL/min/kg] | half-life (Pharmacokinetics in rat) [h] | bioavailability (Pharmacokinetics in rat) [%] | bioavailability [1] [%] | clearance [1] [mL/min/kg] | half-life [1] [h]
N#Cc1cnc(Nc2cc(CN3CCN(C(N)=O)CC3)ccn2)s1 | 2.6 | 2.1 | – | – | – | – | – | – | –
CN(C)C(=O)N1CCN(Cc2ccnc(Nc3ncc(C#N)s3)c2)CC1 | 3.6 | 3.4 | 49 | 15.5 | 1.6 | – | – | – | –
CC(=O)N1CCN(Cc2ccnc(Nc3ncc(C#N)s3)c2C)CC1 | 14 | 1.4 | – | – | – | – | – | – | –
CNC(=O)N1CCN(Cc2ccnc(Nc3ncc(C#N)s3)c2)CC1 [Compound 4-4, 4-[2-(5-cyano-thiazol-2-ylamino)-pyridin-4-ylmethyl]-piperazine-1-carboxylic acid methylamide] | 0.5 | 17.4 | 99 | 10.7 | 1.9 | 49 | 43 | 13.4 | 1.7
CS(=O)(=O)C1CCN(Cc2ccnc(Nc3ncc(C#N)s3)c2)CC1 [Compound 5-6, 2-[(4-{[4-(methylsulfonyl)piperidin-1-yl]methyl}pyridin-2-yl)amino]-1,3-thiazole-5-carbonitrile] | 1.8 | 6.3 | 95 | 16.3 | 1.1 | 70 | 67 | 3 | 5.5
